Experimental data from patent publication US20240300940A1, “Phenothiazinyl Compounds and Uses” (Prosetta Biosciences, Inc., priority 2023, published 2024).
pEC50: −log10 of the molar value. Read-outs that look alike come from different tables or passages of the source.

Columns and labels:
[1] = tested on: S. pneumoniae ATCC49619; test: MIC assay, serial dilution; conditions: Streptococcus pneumoniae
[2] = tested on: Hennes-20 cells; test: Hennes-20 oncology screen; type: cell-based; conditions: 72 h, alamar Blue
Outline: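 Cells seeded at 500 and 15,000 per well in minimum essential medium, dosed with a compound titration after 24 h, then incubated 72 h at 37 °C. Alamar Blue added and incubated a further 72 h, read at 530/590. Lower signal only at low density indicates proliferation arrest; lower signal at both densities indicates toxicity.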

[3] = tested on: E. faecium ATCC27270; test: MIC assay, serial dilution; conditions: Enterococcus faecium
[4] = Organ exposure in mice; conditions: mice IV 3 mg/kg
[5] = tested on: S. aureus ATCC25923; test: Minimum bactericidal concentration assay; type: cell-based; conditions: Staphylococcus aureus
Experimental: (§1) The study was done based on CLSI document M26-A Wayne, PA: Clinical and laboratory standard institute: 1999.
(§2) After determination of a MIC in a broth system under standard conditions, measured aliquots of growth media may be sub-cultured quantitatively to solid media to assess bactericidal activity. To calculate the extent of killing at each antibiotic concentration, plates are incubated under appropriate conditions, colony counts are performed and results are compared to that of the growth control well. The accepted definition of the minimum bactericidal concentration (MBC) is the lowest concentration of test compound at which a 99.9% (3 log) or greater reduction in growth compared with the initial inoculum is observed. […] (Table 4).

[6] = tested on: S. pyogens ATCC49399; test: Minimum bactericidal concentration assay; type: cell-based; conditions: Streptococcus
Experimental: as §1, §2

[7] = tested on: E. faecalis ATCC29212; test: Minimum bactericidal concentration assay; type: cell-based; conditions: Enterococcus faecalis
Experimental: as §1, §2

[8] = tested on: S. epidermidis ATCC14990; test: Minimum bactericidal concentration assay; type: cell-based; conditions: Staphylococcus epidermidis
Experimental: as §1, §2

[9] = tested on: S. pneumoniae ATCC49619; test: Minimum bactericidal concentration assay; type: cell-based; conditions: Streptococcus pneumoniae
Experimental: as §1, §2

[10] = tested on: E. faecium ATCC27270; test: Minimum bactericidal concentration assay; type: cell-based; conditions: Enterococcus faecium
Experimental: as §1, §2

[11] = tested on: E. coli ATCC25922; test: MIC assay, serial dilution; conditions: Escherichia coli
[12] = tested on: E. faecalis ATCC29212; test: MIC assay, serial dilution; conditions: Enterococcus faecalis
[13] = tested on: A. baumannii ATCC19606; test: MIC assay, serial dilution; conditions: Acinetobacter baumannii
[14] = tested on: S. pyogens ATCC49399; test: MIC assay, serial dilution; conditions: Streptococcus
[15] = tested on: S. epidermidis ATCC14990; test: MIC assay, serial dilution; conditions: Staphylococcus epidermidis
[16] = tested on: different species of gram-positive bacteria; test: MIC assay, summary over gram-positive species; conditions: exception E. faecalis
[17] = tested on: MRSA/S. aureus isolates; test: MIC50 against isolates; type: cell-based; conditions: Staphylococcus aureus
[18] = tested on: Sensitive strain; test: Cross resistance test (MIC); conditions: read-out: MIC, Sensitive strain
[19] = tested on: MRSA ATCC 43300; test: Serum effect on antibacterial activity (MIC); type: cell-based, S. aureus; conditions: Staphylococcus aureus

Compound: CC1(C)C2CN(c3ccc4nc5ccc(N6CC7C(C6)C7(C)C)cc5[s+]c4c3)CC21 (stereo not drawn) [Compound 1, 3,7-Di(6,6-dimethyl-3-azabicyclo[3.1.0]hexan-N-yl)phenothiazinium iodide]
- MIC [1]: 0.25 µg/mL
- pEC50 [2]: 6.30
- MIC [3]: 0.5 µg/mL
- Organ exposure, concentration ([4]; Brain, 0.5 hrs): 81 ng
- Organ exposure, concentration ([4]; Brain, 2 hrs): 56 ng
- Organ exposure, concentration ([4]; Brain, 24 hrs): 30 ng
- Organ exposure, concentration ([4]; Heart, 0.5 hrs): 1335 ng
- Organ exposure, concentration ([4]; Heart, 2 hrs): 1951 ng
- Organ exposure, concentration ([4]; Heart, 24 hrs): 821 ng
- Organ exposure, concentration ([4]; Kidney, 0.5 hrs): 1817 ng
- Organ exposure, concentration ([4]; Kidney, 2 hrs): 2179 ng
- Organ exposure, concentration ([4]; Kidney, 24 hrs): 637 ng
- Organ exposure, concentration ([4]; Liver, 0.5 hrs): 13897 ng
- Organ exposure, concentration ([4]; Liver, 2 hrs): 11563 ng
- Organ exposure, concentration ([4]; Liver, 24 hrs): 864 ng
- Organ exposure, concentration ([4]; Lungs, 0.5 hrs): 13003 ng
- Organ exposure, concentration ([4]; Lungs, 2 hrs): 4178 ng
- Organ exposure, concentration ([4]; Lungs, 24 hrs): 661 ng
- Organ exposure, concentration ([4]; Muscle, 0.5 hrs): 154.5 ng
- Organ exposure, concentration ([4]; Muscle, 2 hrs): 324.5 ng
- Organ exposure, concentration ([4]; Muscle, 24 hrs): 168.33 ng
- MBC [5]: 0.25 µg/mL
- MBC [6]: 0.5 µg/mL
- MBC [7]: 2 µg/mL
- MBC [8]: 1 µg/mL
- MBC [9]: 0.5 µg/mL
- MBC [10]: 0.5 µg/mL
- MIC ([11]; ATCC25922, E. coli ATCC25922): 4 µg/mL
- MIC ([11]; ATCC25922, read-out: Anti-bacterial Activity (E. coli MIC (uM)), E. coli, Table 5): 1.6 µM
- MIC [12]: 2 µg/mL
- MIC [13]: 2 µg/mL
- MIC [14]: 0.25 µg/mL
- MIC [15]: 0.5 µg/mL
- MIC range [16]: 0.25 to 0.5 µg/mL
- MIC50 [17]: 0.125 µg/mL
- MIC [18]: 0.25 µg/mL
- MIC ([19]; MRSA ATCC 43300, 20% serum): 1 µg/mL
- MIC ([19]; MRSA ATCC 43300, 40% serum): 2 µg/mL
- MIC ([19]; MRSA ATCC 43300, No serum): 0.25 µg/mL
